Earlier results in patent US20240374540A1, “FORMULATIONS FOR THE TREATMENT OF OCULAR SURFACE DISEASES AND RELATED METHODS” (priority 2016, published 2024).

System: AQP5
Conditions: human airway epithelial cells (A459 cells)

Nc1c(Br)cc(Br)cc1CN[C@H]1CC[C@H](O)CC1 [ambroxol, Ambroxol]
expression of AQP5: stimulate the expression of AQP5
